# Results reported in patent US20260151384A1, “ISOQUINOLINE DERIVATIVES AS PROTEIN DEGRADERS, E7 DEGRADERS, ANTIVIRALS, TUMOR THERAPEUTICS AND IMMUNE SUPPRESSIVES” (priority 2022, published 2026).
# Experiments:
# SARS-CoV-2 [1] = test: microbe, parasite or virus in culture; type: cell-based; conditions: 1.25 μM, n4
# [2] = test system: p38, JNK1, ERK1/2, PKC, or Src-like kinases; conditions: cited from earlier work
# PDL-1 = test: Western blot of PDL-1 in CaSki cells; type: cell-based, human; conditions: 4 and 8 hours, dose dependent
# Protocol: 24 h after seeding, cells were treated with VSP035, cycloheximide (CHX) and/or MG132 protasome inhibitor as indicated. Cells were harvested for analysis for BY WB. […] In particular, faster migrating band abundancy was regulated by proteasome inhibitor MG132 and the protein was destabilized in the presence of CHX.
# SARS-CoV-2 [3] = type: cell-based
# [4] = Pharmacokinetics of VSP034 and VSP035, oral liposomal formulation; type: in vivo, female Sprague-Dawley rats; conditions: 100 mg/kg oral gavage; Student's t test, significant
# Protocol: The pharmacokinetic parameters of VSP034 and VSP035 encapsulated as liposomal formulation were assessed after the administration of a single 100 mg/kg dose by oral gavage to 6 female Sprague-Dawley rats weighting 250 grams (±25g). The animals were randomized into two experimental groups (Groups 1 and 2), each composed of 3 rats. Rats belonging to group 1 were administered with VSP034 and rats belonging to group 2 were administered with VSP035. Blood was collected at baseline and 15 min, 30 min, 1, 2, 4, 6, 8, and 24 hours after the oral gavage. The rats were sacrificed 24 hours after the dosing. Blood was collected at each timepoint from the caudal vein, with the exception of the last collection (24 hours), which was performed by intracardiac puncture at the moment of sacrifice under isoflurane anesthesia. The animals were weighted immediately before the dosing to assess the proper dose and carefully monitored during the experiment. […] The main pharmacokinetic parameters (half-life, t1/2; time to maximum plasma concentration, Tmax; maximum plasma concentration, Cmax, AUC Extrapolated to Infinity, AUC0-inf; mean residence time, MRT; Apparent Volume of Distribution During Terminal Phase, VZ/F; and apparent oral clearance, CL/F) were calculated from the coefficients and exponents of the best-fits by using standard formulae.
# SARS-CoV-2 [5] = test: SARS-CoV-2 antiviral activity, mono treatment or combinations, Vero E6 cells (Test 18); type: cell-based; conditions: 10, 5, 2.5, 1.25, 0.625 μM; FIG. 10
# Text: SARV-CoV-2 antiviral activity of VSP035 from mono treatment, or in combination with various pharmacological drug substances at various concentrations shown by the bars from left to the right. Y axis % Inhibition. Due to lethal concentrations for Vero E6 cells, dose dependency is visible at non-lethal doses only (median of multiple experiments n4 is shown); Concentrations (left to right) Compounds and respective assay concentrations in μM are, “constant” means same concentration for the series (X axis, numbers for series): (FIG. 10).
# 4E-BP1 = test: Western blot of 4E-BP1 phosphorylation in CaSki cells; type: cell-based, human; conditions: 6 h, 10 μM & 5 μM
# Text: Thus, clearly distinguishing downstream-effects in comparison to a general TOR Kinase inhibition.
# HPV16 E7 protein = HPV16 E7 protein (Human papillomavirus type 16, UniProt P03129); test: Western blot of E7 steady state level in CaSki cells; type: cell-based; conditions: 10 μM, up to 24 hours
# HPV16 E7 protein, sequence (P03129 whole entry): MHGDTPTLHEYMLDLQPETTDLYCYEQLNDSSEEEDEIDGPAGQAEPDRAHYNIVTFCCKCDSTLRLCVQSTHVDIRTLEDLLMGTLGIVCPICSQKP
# Protocol: Reagents for Extract preparation and Western Blotting: Extraction Buffer: 2.5× (Tris 0.25M pH6.8, Glycerol 50%, SDS 10%), Gels: 4-12% gradient gels (Bolt® 4-12% Bis-Tris Plus Gel). MES Buffer: 50 mM MES, 50 mM Tris Base, 0.1% SDS, 1 mM EDTA, pH 7.3, Blotting membrane: Nitrocelulose 0.2 μm (Whatman Protran #10401394), 3MM filter paper (e.g. Whatman 3MM Chr, #3030917). Western Detection Reagents: WB Wash Buffer 1× (TBET): 20 mM Tris, 150 mM NaCl, 0.125% Tween20, pH 7.8; skim-milk powder (less than 0.15% fat content). Phosphate buffered saline (PBS) 1×: prepared as 1 L add 8 g sodium chloride (NaCl), 0.2 g potassium chloride (KCl), 1.44 g sodium phosphate, dibasic (Na2HPO4) and 0.24 g potassium phosphate, monobasic (KH2PO4) to 1 L dH2O, pH adjusted to 7.2.
# B) For cells in cell culture the following procedure for the preparation of a total cell extract is used. Freshly seeded cells are grown for 24 hours to obtain 65-75% confluency (corresponds for CaSki cells to a plating of approx. 2×10^6 cells/10 cm Ø cell culture dish). Cell culture dishes with medium are out on ice for 5 minutes. […]
# Dilute secondary anti-mouse HRP antibody in WB Blocking Buffer according to manufacturer instruction (e.g. CST Anti mouse IgG HRP-linked Ab, #7076, 1:3000). […] The membranes are developed using standard chemo luminescence (ECL) detection systems following imaging with Licor or Viber devices. […]
Structure (SMILES),% Inhibition of SARV-CoV-2 virus activity (SARS-CoV-2 [1]) [%],"inhibitory activity against p38, JNK1, ERK1/2, PKC, or Src-like kinases [2]",regulation of PDL-1 (western blot) (PDL-1),inhibition (SARS-CoV-2 [3]) [%],AUC higher than that of VSP034 [4] [fold],antiviral activity as single agent (SARS-CoV-2 [5]),phosphorylation state of 4E-BP1 (4E-BP1),HPV 16 E7 protein degradation time course (western blot) (HPV16 E7 protein)
Nc1ncnc2n[nH]c(Nc3ccc(F)cc3)c12 [CGP57380],17.71,no inhibitory activity,,,,,,
"CN1CCC(CN2C(=O)c3ccccc3[C@H](C(=O)Nc3cccc(N4CCN(C)CC4)c3)[C@H]2c2ccc(C(F)(F)F)cc2)CC1 [VSP035, (3S,4S)—N-[3-(4-methylpiperazin-1-yl)phenyl]-2-[(1-methylpiperidin-4-yl)methyl]-1-oxo-3-[4-(trifluoromethyl)phenyl]-1,2,3,4-tetrahydroisoquinoline-4-carboxamide]",,,valid pdl-1 destabilizer,72±7.7,4,Robust antiviral activities,dose dependent hypophosphorylation,stable e7 reduction
